Source: US20230322756A1, “FUSED IMIDAZOLE DERIVATIVE, PREPARATION METHOD THEREFOR, AND MEDICAL USE THEREOF” (JIANGSU HENGRUI MEDICINE CO., LTD., priority 2020, published 2023)

molecular target: hERG potassium channel (Homo sapiens (Human), UniProt Q12809); experiment: Blocking effect on hERG potassium currents, manual patch-clamp in CHO cells stably expressing hERG channel; format: cell-based; settings: read-out: IC50 for the blocking effect on the hERG potassium ion channel
From the text: This example is intended to assess the blocking effect of the compounds of the present disclosure and positive compound 1 (see the compound of Example 7 on page 125 of WO2019239319A1) on hERG potassium currents in a stable cell strain transfected with an hERG potassium channel by a manual patch-clamp assay. The structure of positive compound 1 is shown below:
The cells used in this experiment were from a CHO cell line (provided by Sophion Bioscience, Denmark) transfected with hERG cDNA and stably expressing hERG channel at cell passage number of P5. Cells were cultured in a medium containing the following components (all from Invitrogen): Ham's F12 medium, 10% (v/v) inactivated fetal bovine serum, 100 μg/mL hygromycin B, and 100 μg/mL geneticin.
CHO hERG cells were grown in a culture dish containing the above culture medium and cultured in an incubator at 37° C. with 5% CO2. 24-48 h before the electrophysiological experiment, CHO hERG cells were transferred to round slides placed in the culture dish and grown in the same culture medium and culture conditions as above. The density of CHO hERG cells on each round slide was required to achieve the requirement that most cells were independent and individual.
In this experiment, a manual patch-clamp system (HEKA EPC-10 signal amplifier and digital conversion system, purchased from HEKA Electronics, Germany) was used for whole cell current recording. Round slides with CHO hERG cells grown on the surface were placed in an electrophysiological recording chamber under an inverted microscope. The chamber was continuously perfused with extracellular fluid (approximately 1 mL/min). The experimental procedures were performed by conventional whole-cell patch-clamp current recording technology. Unless otherwise stated, the experiment was performed at room temperature ([…]). The cells were clamped at a voltage of −80 mV. The cell clamp voltage was depolarized to +20 mV to activate the hERG potassium channel, and then clamped to −50 mV 5 s later to eliminate inactivation and generate tail currents. The tail current peak was used as a value for the numeral value of the hERG current. After the hERG potassium currents recorded in the above step were stable under the continuous extracellular fluid perfusion in the recording chamber, the drug to be tested could be added for perfusion until the inhibitory effect of the drug on the hERG current reached a stable state. Generally, the last superposition of 3 consecutive current recording lines is used as a criterion for determining whether a stable state is reached. […]
The experimental data were analyzed by data analysis software supplied by HEKA Patchmaster(V2x73.2), Microsoft Excel, and Graphpad Prism 5.0. […]

Sequence of hERG potassium channel (Q12809 whole entry): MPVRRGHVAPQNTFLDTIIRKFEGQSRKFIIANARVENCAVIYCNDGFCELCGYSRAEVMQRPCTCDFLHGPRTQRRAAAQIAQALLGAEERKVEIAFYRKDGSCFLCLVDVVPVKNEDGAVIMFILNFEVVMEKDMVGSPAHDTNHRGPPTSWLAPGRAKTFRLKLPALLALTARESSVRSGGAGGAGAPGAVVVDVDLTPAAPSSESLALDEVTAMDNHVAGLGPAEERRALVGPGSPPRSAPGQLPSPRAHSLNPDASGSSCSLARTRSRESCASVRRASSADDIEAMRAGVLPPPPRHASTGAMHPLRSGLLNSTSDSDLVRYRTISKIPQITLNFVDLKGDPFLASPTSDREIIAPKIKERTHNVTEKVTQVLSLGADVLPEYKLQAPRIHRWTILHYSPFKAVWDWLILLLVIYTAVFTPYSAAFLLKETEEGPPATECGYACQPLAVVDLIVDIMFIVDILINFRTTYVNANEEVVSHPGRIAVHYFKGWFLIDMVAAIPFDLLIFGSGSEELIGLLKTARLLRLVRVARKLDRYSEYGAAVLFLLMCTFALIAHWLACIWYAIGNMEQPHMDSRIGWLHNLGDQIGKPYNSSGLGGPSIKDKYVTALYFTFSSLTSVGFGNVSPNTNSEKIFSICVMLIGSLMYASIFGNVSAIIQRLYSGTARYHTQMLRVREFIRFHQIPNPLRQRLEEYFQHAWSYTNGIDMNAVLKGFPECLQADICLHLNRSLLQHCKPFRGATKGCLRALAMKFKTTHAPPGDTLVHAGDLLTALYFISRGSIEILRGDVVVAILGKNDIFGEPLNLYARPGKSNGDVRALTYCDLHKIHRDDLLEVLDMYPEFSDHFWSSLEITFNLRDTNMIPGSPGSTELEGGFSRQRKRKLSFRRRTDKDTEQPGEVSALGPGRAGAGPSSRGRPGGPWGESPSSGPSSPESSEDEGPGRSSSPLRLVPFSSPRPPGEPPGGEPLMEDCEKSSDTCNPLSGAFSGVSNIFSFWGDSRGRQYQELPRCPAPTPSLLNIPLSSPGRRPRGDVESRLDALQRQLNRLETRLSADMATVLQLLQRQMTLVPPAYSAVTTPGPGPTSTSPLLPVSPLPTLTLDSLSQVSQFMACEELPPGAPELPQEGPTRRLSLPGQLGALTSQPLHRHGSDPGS

SMILES | IC50 [nM]
O=C(O)c1ccc2nc(CN3CCC(c4cccc5c4OC(c4ccc(Cl)cc4F)CO5)CC3)n(C[C@@H]3CCO3)c2n1 (stereo partly drawn) [Example 12, 2-((4-(3-(4-Chloro-2-fluorophenyl)-2,3-dihydrobenzo[b][1,4]dioxan-5-yl)piperidin-1-yl)methyl)-3-((S)-oxetan-2-ylmethyl)-3H-imidazo[4,5-b]pyridine-5-carboxylic acid] | 26100

molecular target: GLP-1 receptor (Homo sapiens (Human), UniProt P43220); experiment: Agonist activity against GLP-1 receptor, CRE-luciferase reporter (ONE-Glo) in CHO-K1/CRE-luc/GLP-1 receptor cells; format: cell-based; settings: 6 h incubation
From the text: This experiment was intended to test the agonist activity of the compound molecules against the GLP-1 receptor and evaluate the in vitro activity of the molecules according to EC50. The experiment adopted a ONE-Glo™ Luciferase Assay System (Promega, E6110). Under the action of compound molecules, GLP-1R downstream signaling pathways were activated to cause elevated cAMP level. The combination of cAMP and CRE could start the transcription expression of CRE downstream luciferase genes, the luciferase could emit fluorescence when reacting with substrates thereof, and the activity of the compound for agonizing GLP-1 receptors was reflected by measuring fluorescence signals through a ONE-Glo™ reagent.
Stably-expressed CHO-K1/CRE-luc/GLP-1 receptor cell strains (self-construction of GLP-1 receptor plasmid; CRE-luc plasmid Promega E8471) were constructed. CHO-K1/CRE-luc/GLP-1 receptor cells were digested, and resuspended after centrifugation. […] The plate was incubated in an incubator for 16 h (37° C., 5% CO2).
The compound was dissolved in DMSO to prepare a stock solution with an initial concentration of 20 mM. The starting concentration of the small molecule compound was 0.2 mM, and the compound underwent 3-fold serial dilution for a total of 10 concentration points, with DMSO at the 11th point. To another 96-well plate was added 95 μL of cell culture medium (DME/F-12+10% FBS), 5 μL of test samples with different concentrations were added to each well, followed by uniform mixing, and then 10 μL of test samples with different concentrations were added to each well, with two duplicate wells set for each sample. The plate was incubated in an incubator for 6 h (37° C., 5% CO2). The 96-well cell culture plate was taken out, and 100 μL of ONE-Glo™ reagent was added to each well, followed by incubation at room temperature for 10 min. The plate was placed in a microplate reader (EnVision 2105, PE) for determination of chemiluminescence.
Data were processed and analyzed using Microsoft Excel and Graphpad Prism 5.

Sequence of GLP-1 receptor (P43220 24-463): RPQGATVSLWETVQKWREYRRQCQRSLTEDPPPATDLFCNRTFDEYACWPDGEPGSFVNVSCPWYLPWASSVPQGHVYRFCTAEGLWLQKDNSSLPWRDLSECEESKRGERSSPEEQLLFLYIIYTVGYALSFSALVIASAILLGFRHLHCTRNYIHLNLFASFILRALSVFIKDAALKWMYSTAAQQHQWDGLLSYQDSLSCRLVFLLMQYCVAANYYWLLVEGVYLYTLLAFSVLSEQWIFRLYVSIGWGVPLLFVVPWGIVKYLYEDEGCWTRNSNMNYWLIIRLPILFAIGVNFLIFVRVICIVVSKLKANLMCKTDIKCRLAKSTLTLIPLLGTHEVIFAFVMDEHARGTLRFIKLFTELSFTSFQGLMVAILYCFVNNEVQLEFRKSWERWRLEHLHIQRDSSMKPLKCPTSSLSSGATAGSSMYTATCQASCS

SMILES | EC50 [nM] | Emax [%]
O=C(O)c1ccc2nc(CN3CCC(c4cccc5c4OC[C@@H](c4nc6ccccc6s4)O5)CC3)n(C[C@@H]3CCO3)c2c1 [Example 11, 2-((4-((S)-2-(Benzo[d]thiazol-2-yl)-2,3-dihydrobenzo[b][1,4]dioxan-5-yl)piperidin-1-yl)methyl)-1-(((S)-oxetan-2-yl)methyl)-1H-benzo[d]imidazole-6-carboxylic acid] | 1.68 | 104
O=C(O)c1ccc2nc(CN3CCC(c4cccc5c4OCC(c4nc6ccccc6s4)O5)CC3)n(C[C@@H]3CCO3)c2c1 (stereo partly drawn) [Example 9, 2-((4-(2-(Benzo[d]thiazol-2-yl)-2,3-dihydrobenzo[b][1,4]dioxan-5-yl)piperidin-1-yl)methyl)-1-(((S)-oxetan-2-yl)methyl)-1H-benzo[d]imidazole-6-carboxylic acid] | 2.05 | 104
O=C(O)c1ccc2nc(CN3CCN(c4cccc5c4O[C@@H](c4ccc(Cl)cc4F)CO5)CC3)n(C[C@@H]3CCO3)c2c1 [Example 14, 2-((4-((S)-3-(4-Chloro-2-fluorophenyl)-2,3-dihydrobenzo[b][1,4]dioxan-5-yl)piperazin-1-yl)methyl)-1-(((S)-oxetan-2-yl)methyl)-1H-benzo[d]imidazole-6-carboxylic acid] | 1.79 | 104
O=C(O)c1ccc2nc(CN3CCC(c4cccc5c4OC(c4nc6ccccc6s4)CO5)CC3)n(C[C@@H]3CCO3)c2c1 (stereo partly drawn) [Example 1, 2-((4-(3-(Benzo[d]thiazol-2-yl)-2,3-dihydrobenzo[b][1,4]dioxan-5-yl)piperidin-1-yl)methyl)-1-(((S)-oxetan-2-yl)methyl)-1H-benzo[d]imidazole-6-carboxylic acid] | 0.56 | 109
O=C(O)c1ccc2nc(CN3CCC(c4cccc5c4OC[C@H](c4nc6ccccc6s4)O5)CC3)n(C[C@@H]3CCO3)c2c1 [Example 10, 2-((4-((R)-2-(Benzo[d]thiazol-2-yl)-2,3-dihydrobenzo[b][1,4]dioxan-5-yl)piperidin-1-yl)methyl)-1-(((S)-oxetan-2-yl)methyl)-1H-benzo[d]imidazole-6-carboxylic acid] | 1.19 | 103
O=C(O)c1ccc2nc(CN3CCC(c4cccc5c4OC(c4ccc(Cl)cc4F)CO5)CC3)n(C[C@@H]3CCO3)c2n1 (stereo partly drawn) [Example 12, 2-((4-(3-(4-Chloro-2-fluorophenyl)-2,3-dihydrobenzo[b][1,4]dioxan-5-yl)piperidin-1-yl)methyl)-3-((S)-oxetan-2-ylmethyl)-3H-imidazo[4,5-b]pyridine-5-carboxylic acid] | 1.72 | 114
O=C(O)c1ccc2nc(CN3CCC(c4cccc5c4OC(c4ccc(Cl)cn4)CO5)CC3)n(C[C@@H]3CCO3)c2c1 (stereo partly drawn) [Example 13, 2-((4-(3-(5-Chloropyridin-2-yl)-2,3-dihydrobenzo[b][1,4]dioxan-5-yl)piperidin-1-yl)methyl)-1-(((S)-oxetan-2-yl)methyl)-1H-benzo[d]imidazole-6-carboxylic acid] | 1.76 | 108

The remaining lines, values ahead:

EC50 [nM] | Emax [%] | SMILES
9.9 | 112 | O=C(O)c1ccc2nc(CN3CC=C(c4cccc5c4OC(c4ccc(Cl)cc4F)CO5)CC3)n(C[C@@H]3CCO3)c2c1 (some centres unmarked) [Example 17]
18.4 | 103 | CC1(c2ccc(Cl)cc2F)COc2c(cccc2C2CCN(Cc3nc4ccc(C(=O)O)cc4n3C[C@@H]3CCO3)CC2)O1 (stereo partly drawn) [Example 18, 2-((4-(2-(4-Chloro-2-fluorophenyl)-2-methyl-2,3-dihydrobenzo[b][1,4]dioxan-5-yl)piperidin-1-yl)methyl)-1-(((S)-oxetan-2-yl)methyl)-1H-benzo[d]imidazole-6-carboxylic acid]
51 | 90 | CC1(c2ccc(Cl)cc2F)COc2cccc(C3CCN(Cc4nc5ccc(C(=O)O)cc5n4C[C@@H]4CCO4)CC3)c2O1 (stereo partly drawn) [Example 20, 2-((4-(3-(4-Chloro-2-fluorophenyl)-3-methyl-2,3-dihydrobenzo[b][1,4]dioxan-5-yl)piperidin-1-yl)methyl)-1-(((S)-oxetan-2-yl)methyl)-1H-benzo[d]imidazole-6-carboxylic acid]
1.42 | 116 | N#Cc1ccc(C2COc3cccc(C4CCN(Cc5nc6ccc(C(=O)O)cc6n5C[C@@H]5CCO5)CC4)c3O2)c(F)c1 (stereo partly drawn) [Example 16, 2-((4-(3-(4-Cyano-2-fluorophenyl)-2,3-dihydrobenzo[b][1,4]dioxan-5-yl)piperidin-1-yl)methyl)-1-((S)-oxetan-2-ylmethyl)-1H-benzo[d]imidazole-6-carboxylic acid]
